Assay results taken from US10253035B2 (priority 2016, dated 2019).
“Also recorded” adds a separate entry of the source. Like-named read-outs stand apart in the source and are kept apart here.

Columns and labels:
Eis_Mtb [1] = biological target: T1, Eis_Mtb (Mycobacterium tuberculosis, UniProt P9WFK7); assay type: biochemical
Eis_Mtb [2] = biological target: T1, Eis_Mtb; experiment: biochemical; assay type: biochemical
Mtb H37Rv = assay type: cell-based
AAC(2′)-Ic = AAC(2′)-Ic (Mycobacterium tuberculosis, UniProt P9WQG9); experiment: biochemical; design: species or system Mtb
AAC(3)-IV = experiment: Selectivity: KAN acetylation by AAC(3)-IV; assay type: biochemical, E. coli; settings: for inhibition of KAN acetylation by AAC(3)-IV (in words): concentrations as high as 200 μM
AAC(6′)-Ie/APH(2″)-Ia = AAC(6′)-Ie/APH(2″)-Ia (Staphylococcus aureus, UniProt P0A0C1); experiment: Selectivity: KAN acetylation by AAC(6′)-Ie/APH(2″)-Ia; assay type: biochemical
[3] = system: A549, HEK-293, and J774A.1 cells; settings: KAN alone at sub-IC50 concentrations (FIG. 9)
[4] = activity of KAN against Mtb H37Rv with compound at concentration tested (100x IC50 or 100 μM), Example 1, two experiments
[5] = KAN MIC for H37Rv Mtb in the presence of compound at the specified concentration, Example 4
[6] = concentrations as high as 200 μM

T1 sequence (P9WFK7 2-402 limits assumed): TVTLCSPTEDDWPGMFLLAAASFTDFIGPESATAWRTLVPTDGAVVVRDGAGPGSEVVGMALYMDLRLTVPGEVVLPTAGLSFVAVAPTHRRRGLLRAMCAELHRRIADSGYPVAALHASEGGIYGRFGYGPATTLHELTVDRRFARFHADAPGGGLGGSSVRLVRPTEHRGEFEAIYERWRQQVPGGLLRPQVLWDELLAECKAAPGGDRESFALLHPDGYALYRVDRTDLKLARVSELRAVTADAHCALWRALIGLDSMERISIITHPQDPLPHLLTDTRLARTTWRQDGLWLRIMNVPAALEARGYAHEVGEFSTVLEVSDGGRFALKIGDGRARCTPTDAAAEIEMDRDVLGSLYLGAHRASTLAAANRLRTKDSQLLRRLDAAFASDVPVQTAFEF
Sequence of AAC(2′)-Ic (P9WQG9 whole entry): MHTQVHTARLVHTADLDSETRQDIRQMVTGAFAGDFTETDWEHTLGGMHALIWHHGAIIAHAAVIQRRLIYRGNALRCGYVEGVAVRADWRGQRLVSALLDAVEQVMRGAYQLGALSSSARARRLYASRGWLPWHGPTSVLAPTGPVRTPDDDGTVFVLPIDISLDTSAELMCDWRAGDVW
Sequence of AAC(6′)-Ie/APH(2″)-Ia (P0A0C1 whole entry): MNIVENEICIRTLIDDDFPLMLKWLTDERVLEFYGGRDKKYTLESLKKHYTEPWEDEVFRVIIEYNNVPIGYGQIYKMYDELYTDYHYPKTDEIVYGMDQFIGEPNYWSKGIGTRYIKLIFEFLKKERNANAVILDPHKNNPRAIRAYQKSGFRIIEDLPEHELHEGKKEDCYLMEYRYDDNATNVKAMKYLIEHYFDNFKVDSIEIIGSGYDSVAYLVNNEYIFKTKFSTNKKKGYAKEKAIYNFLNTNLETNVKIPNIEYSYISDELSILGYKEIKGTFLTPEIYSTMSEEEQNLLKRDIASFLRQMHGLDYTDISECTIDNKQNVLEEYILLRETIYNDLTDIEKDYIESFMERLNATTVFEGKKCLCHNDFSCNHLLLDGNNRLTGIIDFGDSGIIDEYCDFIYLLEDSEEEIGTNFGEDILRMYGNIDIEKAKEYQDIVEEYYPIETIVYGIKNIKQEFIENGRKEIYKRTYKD

Compound: Cc1cc(NS(=O)(=O)c2ccc3[nH]c(=O)c(=O)[nH]c3c2)ccc1Br [Compound 1]
- Eis inhibition in the HTS (in words) (Eis_Mtb [1]): modest Eis inhibition; also recorded: did not display significant Eis inhibition

Compound: CCC(=O)Cn1c(C(=O)OC)cc2occc21 [Compound 1l]
- IC50 (Eis_Mtb [2]): > 200000 nM

Compound: COC(=O)c1cc2occc2n1CC(=O)C(C)(C)C [Compound 1m]
- IC50 (Eis_Mtb [2]; read-out: IC50): > 200000 nM
- H37Rv MICKAN (Mtb H37Rv; [4]): ≤1.25 µg/mL

Compound: CCC(=O)CN1C(=O)C2(OCCO2)c2ccccc21 [Compound 2l]
- IC50 (Eis_Mtb [2]; read-out: IC50): > 200000 nM
- H37Rv MICKAN (Mtb H37Rv; [4]): ≤1.25 µg/mL

Compound: O=C(CN1C(=O)C2(OCCO2)c2ccccc21)c1cccc([N+](=O)[O-])c1 [Compound 2n]
- IC50 (Eis_Mtb [2]; read-out: IC50): 1200 ± 400 nM

Compound: O=c1[nH]c2ccc(S(=O)(=O)Nc3ccc(Cl)c(C(F)(F)F)c3)cc2[nH]c1=O [Compound 3]
- Eis inhibition in the HTS (in words) (Eis_Mtb [1]): modest Eis inhibition

Compound: O=C(C[N+]1=C(c2ccc(F)c(F)c2)c2cccn2CC1)c1cccc(Cl)c1 [Compound 3d]
- IC50 (Eis_Mtb [2]; read-out: IC50): 43 ± 6 nM

Compound: O=C(C[N+]1=C(c2ccc(F)c(F)c2)c2cccn2CC1)c1ccc(F)cc1 [Compound 3h]
- IC50 (Eis_Mtb [2]; read-out: IC50): 110 ± 30 nM

Compound: CCN(CC)CCCNC1=NS(=O)(=O)C(c2ccc(C)c(C)c2)=C1C [Compound 3i]
- H37Rv MICKAN (Mtb H37Rv; [5]): 0.625 µg/mL

Compound: Cc1ccc(C(=O)C[N+]2=C(c3ccc(F)c(F)c3)c3cccn3CC2)cc1 [Compound 3k]
- IC50 (Eis_Mtb [2]; read-out: IC50): 110 ± 30 nM

Compound: CC1=C(c2ccc(F)cc2)S(=O)(=O)N=C1NCCCN1CCCCC1 [Compound 6b]
- H37Rv MICKAN (Mtb H37Rv; [5]): 0.625 µg/mL

Compound: CC1=C(c2ccc(F)cc2)S(=O)(=O)N=C1NCCCN1CCCCC1C (centres unmarked) [Compound 7b]
- H37Rv MICKAN (Mtb H37Rv; [5]): 0.625 µg/mL

Compound: CN1C(=O)C2(OCCO2)c2ccccc21 [Compound 8b]
- Eis inhibition in the HTS (in words) (Eis_Mtb [1]): no Eis_Mtb inhibitory activity

Compound: CC1=C(c2ccc(Cl)cc2)S(=O)(=O)N=C1NCCCN1CCc2ccccc2C1 [Compound 11c]
- H37Rv MICKAN (Mtb H37Rv; [5]): 0.625 µg/mL

Compound: CC1=C(c2ccccc2)S(=O)(=O)N=C1NCCCN1CCOCC1 [Compound 13a]
- H37Rv MICKAN (Mtb H37Rv; [5]): 0.625 µg/mL

Compound: CC1=C(c2ccc(C)cc2)S(=O)(=O)N=C1NCCCN1CCOCC1 [Compound 13e]
- H37Rv MICKAN (Mtb H37Rv; [5]): 0.625 µg/mL

Compound: CC1=C(c2cccc(Cl)c2)S(=O)(=O)N=C1NCCCN1CCOCC1 [Compound 13g]
- H37Rv MICKAN (Mtb H37Rv; [5]): 0.625 µg/mL

Compound: CC1=C(c2ccc(C)c(C)c2)S(=O)(=O)N=C1NCCCN1CCOCC1 [Compound 13i]
- H37Rv MICKAN (Mtb H37Rv; [5]): 0.625 µg/mL

Compound: COc1ccc(N(C)S(=O)(=O)c2ccc3[nH]c(=O)c(=O)[nH]c3c2)cc1 [Compound 14]
- Eis inhibition in the HTS (in words) (Eis_Mtb [1]): inactive

Compound: CC1=C(c2ccc(Cl)cc2)S(=O)(=O)N=C1NCCCN1CCN(C)CC1 [Compound 14c]
- H37Rv MICKAN (Mtb H37Rv; [5]): 0.625 µg/mL

Compound: Cc1ccc(N(C)S(=O)(=O)c2ccc3[nH]c(=O)c(=O)[nH]c3c2)cc1 [Compound 15]
- Eis inhibition in the HTS (in words) (Eis_Mtb [1]): inactive

Compound: CCN1CCN(CCCNC2=NS(=O)(=O)C(c3ccc(C)cc3)=C2C)CC1 [Compound 15e]
- H37Rv MICKAN (Mtb H37Rv; [5]): 0.625 to 1.25 µg/mL

Compound: CCN1CCN(CCCNC2=NS(=O)(=O)C(c3ccc(C(C)C)cc3)=C2C)CC1 [Compound 15f]
- H37Rv MICKAN (Mtb H37Rv; [5]): 0.625 to 1.25 µg/mL

Compound: CC1=C(c2ccc(C)c(C)c2)S(=O)(=O)N=C1NCCCN1CCN(C2CCCCC2)CC1 [Compound 17i]
- H37Rv MICKAN (Mtb H37Rv; [5]): 0.625 to 1.25 µg/mL

Compound: CN(c1ccc(Br)cc1)S(=O)(=O)c1ccc2[nH]c(=O)c(=O)[nH]c2c1 [Compound 29]
- Eis inhibition in the HTS (in words) (Eis_Mtb [1]; single-point HTS of library compounds): potently inhibited Eis activity

Compound: CC1=C(c2ccccc2)S(=O)(=O)N=C1NCCN1CCCCC1 [Compound 33a]
- H37Rv MICKAN (Mtb H37Rv; [5]): 0.625 µg/mL

Compound: CC1=C(c2ccc(C)cc2)S(=O)(=O)N=C1NCCN1CCOCC1 [Compound 35e]
- H37Rv MICKAN (Mtb H37Rv; [5]): 0.625 µg/mL

Compound: CC1=C(c2cccc(Cl)c2)S(=O)(=O)N=C1NCCN1CCOCC1 [Compound 35g]
- H37Rv MICKAN (Mtb H37Rv; [5]): 0.625 µg/mL

Compound: CC1=C(c2cccc(Br)c2)S(=O)(=O)N=C1NCCN1CCOCC1 [Compound 35h]
- H37Rv MICKAN (Mtb H37Rv; [5]): 0.625 µg/mL

Compound: CC1=C(c2ccc(C)c(C)c2)S(=O)(=O)N=C1NCCN1CCOCC1 [Compound 35i]
- H37Rv MICKAN (Mtb H37Rv; [5]): 0.625 µg/mL

Compound: COc1ccc(C2=C(C)C(NCCN3CCN(C)CC3)=NS2(=O)=O)cc1 [Compound 36d]
- H37Rv MICKAN (Mtb H37Rv; [5]): 0.625 µg/mL

Compound: CCN1CCN(CCNC2=NS(=O)(=O)C(c3ccc(F)cc3)=C2C)CC1 [Compound 37b]
- H37Rv MICKAN (Mtb H37Rv; [5]): 0.625 µg/mL

Compound: CCN1CCN(CCNC2=NS(=O)(=O)C(c3ccc(OC)cc3)=C2C)CC1 [Compound 37d]
- H37Rv MICKAN (Mtb H37Rv; [5]): 0.625 to 1.25 µg/mL

Compound: COc1cccc(N(C)S(=O)(=O)c2ccc3[nH]c(=O)c(=O)[nH]c3c2)c1 [Compound 39]
- inhibition at 200 µM (AAC(2′)-Ic; read-out: inhibition of the AAC(2′)-Ic activity): 15%
- inhibition of KAN acetylation by AAC(3)-IV (in words) (AAC(3)-IV): did not inhibit KAN acetylation
- inhibition of KAN acetylation by AAC(6′)-Ie/APH(2″)-Ia (in words) (AAC(6′)-Ie/APH(2″)-Ia): did not inhibit KAN acetylation

Compound: CN(c1ccc2ccccc2c1)S(=O)(=O)c1ccc2[nH]c(=O)c(=O)[nH]c2c1 [Compound 46]
- inhibition of KAN acetylation by AAC(2′)-Ic (in words) (AAC(2′)-Ic; [6]): did not inhibit KAN acetylation
- inhibition of KAN acetylation by AAC(3)-IV (in words) (AAC(3)-IV): did not inhibit KAN acetylation
- inhibition of KAN acetylation by AAC(6′)-Ie/APH(2″)-Ia (in words) (AAC(6′)-Ie/APH(2″)-Ia; [6]): did not inhibit KAN acetylation

Compound: CC1=C(c2ccc(F)cc2)S(=O)(=O)N=C1N1CCC(N2CCCCC2)CC1 [Compound 46b]
- IC50 (Eis_Mtb [2]; read-out: IC50): 92 ± 21 nM
- H37Rv MICKAN (Mtb H37Rv; [5]): 0.625 to 1.25 µg/mL
- inhibition of KAN acetylation by AAC(2′)-Ic (in words) (AAC(2′)-Ic): no inhibition by either compound was observed
- % activity (AAC(2′)-Ic; 200 µM): 100%
- % activity (AAC(3)-IV; AAC(3)-IV activity at 200 μM inhibitor relative to that without inhibitor): 100%
- inhibition of KAN acetylation by AAC(3)-IV (in words) (AAC(3)-IV): no inhibition by either compound was observed
- % activity (AAC(6′)-Ie/APH(2″)-Ia; acetylation activity of AAC(6′)-Ie/APH(2″)-Ia at 200 μM inhibitor relative to that without inhibitor): 80%
- inhibition of KAN acetylation by AAC(6′)-Ie/APH(2″)-Ia (in words) (AAC(6′)-Ie/APH(2″)-Ia; [6]): no inhibition by either compound was observed

Compound: COc1cc(N(C)S(=O)(=O)c2ccc3[nH]c(=O)c(=O)[nH]c3c2)cc2ccccc12 [Compound 47]
- inhibition of purified Eis (in words) (Eis_Mtb [2]; dose-response assay): loss of Eis inhibition

Compound: CCCN1CCN(C2=NS(=O)(=O)C(c3ccc(C)c(C)c3)=C2C)CC1 [Compound 62i]
- H37Rv MICKAN (Mtb H37Rv; [5]): 0.625 µg/mL

Compound: CC1=C(c2ccc(F)cc2)S(=O)(=O)N=C1NCc1ccccc1 [Compound 89b]
- H37Rv MICKAN (Mtb H37Rv; [5]): 1.25 µg/mL

Compound: CC1=C(c2ccc(F)cc2)S(=O)(=O)N=C1NCc1ccccn1 [Compound 112b]
- H37Rv MICKAN (Mtb H37Rv; [5]): 0.625 µg/mL

Compound: CC1=C(c2ccc(C)c(C)c2)S(=O)(=O)N=C1NCC(=O)NCc1ccc(C)o1 [Compound 116i]
- H37Rv MICKAN (Mtb H37Rv; [5]): 1.25 µg/mL

Compound: NC[C@H]1O[C@H](O[C@H]2[C@H](O)[C@@H](O[C@H]3O[C@H](CO)[C@@H](O)[C@H](N)[C@H]3O)[C@H](N)C[C@@H]2N)[C@H](O)[C@@H](O)[C@@H]1O [KAN, kanamycin A]
- effect on cell growth (in words) [3]: promotes cell growth

Compound: COC(=O)c1cc2occc2n1CC(=O)c1cccc(OC)c1 [if]
- IC50 (Eis_Mtb [2]): > 200000 nM
